We go through 1 compound from patent publication US20230002446A1, “ANTI-INFLAMMATORY AGENTS” (The University of Sydney, priority 2019, published 2023).

Where a SMILES comes first, the peptide text is derived from it. [ ]: non-standard residue; d: D form. AEEA = NCCOCCOCC(=O)O

Data set [1] deals with C57BL/6 mice. Kind of data set: imiquimod-induced psoriasis model. It is filed as in vivo. As to the method:
FIG. 4—Peptide administration reduces local disease severity in a mouse model of psoriasis. (A) Experimental outline (B) Clinical scores of mice receiving PBS or peptide RP23 (SEQ ID NO:12) injection, compared to daily (0-4 days) topical application of glucocorticoid on the back and ear. (C) Measures of disease local to the peptide RP23 injection site. Redness was measured using an unbiased erythema meter and skin thickness by manual callipers. (D) Spleen weight at day 5 as a measure of systemic immune suppression. […] Data are presented as mean±S.E.M. Statistical significance was determined by ANOVA with Dunnett's multiple comparison test, *p<0.05, **p<0.01, ***p<0.001, ****p<0.0001.
FIG. 10. Therapeutic synergy of RP23 and topical steroid in the murine imiquimod-induced psoriasis model. Aldara cream (5% imiquimod, 57.5 mgs) was applied daily (days 0-4) to the backs of C57BL/6 female mice to induce psoriasis. Clinical scores (PASI), modified psoriasis area and severity index) of mice receiving (A) PBS or RP23 injection at day −1, with or without topical application of glucocorticoid (0.05% betamethasone dipropionate, “BD” 30 mgs) on the back at day 0 (B) PBS or RP23 injection at day 1 and topical application of glucocorticoid at day 1, in comparison to PBS injection only at day −1. Data are the means+/−SEM (n=5). Statistical significance was determined by ANOVA with Dunnett's multiple comparison test to PBS only control, *p<0.05, **p<0.01, ***p<0.001, ****p<0.0001.
The backs of 8-week old female C57BL/6 mice (Australian BioResources) were coarse shaved. A minimum of 24 hours later, 10 nmol RP23 was delivered via sub-cutaneous injection at the lower back in 200 μl phosphate buffered saline (PBS). Groups of mice acting as positive controls for disease development received injection of PBS only. One or seven days later, psoriasis-like inflammation was induced via topical application of 5% imiquimod cream (Aldara, Inova Pharmaceuticals) to the shaved back (57.5 mgs) and one ear (5 mg, divided between dorsal and ventral sides). The contralateral ear served as a negative control for imiquimod-induced inflammation. Imiquimod application was repeated daily for four consecutive days. C57BL/6 mice experience rapid weight loss (up to 20%) upon application of imiquimod cream. Supportive care was provided in the form of dietary supplementation commenced 2 days prior to imiquimod application, and intra-peritoneal injection of 300 μl sterile PBS on days two and three of imiquimod application. Disease progression was monitored for five days, by recording weight loss and grading disease of the back skin using a modified Psoriasis Area and Severity Index (PASI) clinical scoring system, that assessed only disease severity. Additionally, erythema meter (DSM II ColorMeter, Cortex Technology, Denmark) readings were taken at four quadrants on the back skin and skin backfold thickness measurements were recorded using manual callipers. Disease progression of the ear skin was determined by recording ear thickness, measured by manual callipers. As a positive control for immune suppressive therapy, groups of mice received daily topical application of betamethasone dipropionate 0.05% (MSD) cream (30 mgs on the back, 10 mgs on the ear).
Aldara cream (5% imiquimod, 57.5 mgs) was applied daily (days 0-4) to the backs of C57BL/6 female mice to induce psoriasis. Clinical scores (PASI, modified psoriasis area and severity index) of mice receiving prophylactic PBS or RP23 (at day −1), with or without topical application of glucocorticoid (0.05% betamethasone dipropionate, 30 mgs) to the back at day 0, were determined (FIG. 10A).
RP23 and BD therapy were also tested when given synergistically at a therapeutic timepoint (at day 1). Psoriasis was induced as above, but clinical scores were determined daily for 10 days after ceasing imiquimod application at day 5, to record the rate and degree of psoriasis disease resolution (FIG. 10B).

For data set [2], the system named is C57BL/6 mice. Kind of data set: T-cell subsets by flow cytometry in imiquimod-induced psoriasis model. The class given is in vivo. As to the method: FIG. 11. RP23 treatment reduces TCRαβ^+ T-cells in the back skin and increases CD4^+ T-regulatory cells in the lymph nodes of mice in an imiquimod-induced psoriasis model. C57BL/6 female mice received PBS or RP23 injection at day −1, then Aldara cream (5% imiquimod, 57.5 mgs) was applied daily (days 0-4) to the backs to induce psoriasis. At day 15, skin and inguinal lymph nodes were analysed by flow cytometry to quantitate (A) T-cell subsets as a proportion of total leukocytes (CD45^+) in the psoriatic back skin, (B) number of CD3^+CD4^+ TCRαβ T-cells in the skin draining lymph nodes (inguinal), with transcription factor staining, to identify cells with a regulatory phenotype (FoxP3^+). Data are the means+/−SEM (n=4-5). Statistical significance was determined by multiple t-tests, *p<0.05.
C57BL/6 female mice received PBS or RP23 injection at day −1, then Aldara cream (5% imiquimod, 57.5 mgs) was applied daily (days 0-4) to the backs of mice to induce psoriasis. At day 15, skin and inguinal lymph nodes were analysed by flow cytometry to quantitate T-cell subsets as a proportion of total leukocytes (CD45+) in the psoriatic back skin, (FIG. 11A).
CD3+CD4+ TCRαβ T-cells in the skin draining lymph nodes (inguinal) were phenotyped by transcription factor staining and flow cytometry to identify cells with a regulatory phenotype (i.e., FoxP3+).
(In flow cytometry, cells or beads pass a laser one at a time.)

For a further data set, the system named is CD11c+ dendritic cells. Kind of data set: MHCII on CD11c+ dendritic cells after intra-nasal instillation. The class given is in vivo, mice. The protocol:
FIG. 15. Mucosal delivery of RP23 to the lungs decreases activation of antigen presenting cells in the lungs and bronchoalveolar space. (A) C57BL/6 mice (n=5) received either PBS or RP23 by intra-nasal instillation or (B) C57BL/6 mice (n=4) received either PBS, scramble RP23 peptide, or RP23 by intra-nasal instillation, then 24 hours later, Pam2Cys-SK4-PEG(OH) intra-nasally to induce an inflammatory state. 24 hours later, cells from the bronchoalveolar lavage and perfused lungs were collected. The median fluorescence intensity of MHCII on CD11c^+ dendritic cells was determined by flow cytometry. Data are the means+/−SEM. Statistical significance was determined by (A) t-test, ***p<0.001 and (B) ANOVA with Dunnett's multiple comparison test to PBS control, *p<0.05.
Naïve C57BL/6 mice (n=5) received either PBS or RP23 by intra-nasal instillation, then 24 hours later, cells from the bronchoalveolar lavage and perfused lungs were collected. The median fluorescence intensity of MHCII on CD11c+ dendritic cells was determined by flow cytometry. […] To determine if this effect would be maintained once potent lung inflammation was induced, C57BL/6 mice (n=4) received either PBS, scramble RP23 peptide, or RP23 by intra-nasal instillation, then 24 hours later, Pam2Cys-SK4-PEG(OH) was given intra-nasally to induce an inflammatory state.

Where [3] appears, read: Pam2Cys-SK4-PEG(OH) intra-nasally 24 hours after peptide.

`CSCC[C@H](NC(=O)COCCOCCNC(=O)[C@H](CCCCN)NC(=O)[C@H](CCCCN)NC(=O)[C@H](CCCCN)NC(=O)[C@@H](N)CCCCN)C(=O)N[C@H](C(=O)N1CCC[C@H]1C(=O)NCC(=O)N[C@H](C(=O)N[C@@H](CCC(N)=O)C(=O)N[C@@H](CO)C(=O)N1CCC[C@H]1C(=O)N[C@@H](Cc1ccccc1)C(=O)N[C@@H](Cc1ccccc1)C(=O)N[C@@H](CC(C)C)C(=O)N[C@@H](CC(C)C)C(=O)N[C@@H](CC(C)C)C(=O)N[C@@H](CC(C)C)C(=O)N[C@@H](CC(C)C)C(=O)N[C@H](C(=O)N[C@H](C(=O)N[C@@H](CC(C)C)C(=O)N[C@H](C(=O)N[C@H](C(=O)N[C@H](C(=O)O)C(C)C)C(C)C)[C@@H](C)O)C(C)C)[C@@H](C)O)[C@@H](C)O)[C@@H](C)O` [RP23] (H-KKKK[AEEA]MTPGTQSPFFLLLLLTVLTVV-OH): the “disease at a distal site (ear thickness)” value in the data set on C57BL/6 mice [1] (injection at lower back, ear measured) was “did not suppress disease at a distal site”. Further, in the data set on C57BL/6 mice [1] (single injection), the local erythema result was “reduced”, the scaling result is “reduced” and the skin thickness entry is listed as “reduced”. Further, in the data set with C57BL/6 mice [1] (spleen weight at day 5, distal ear thickness (FIG. 4d)), the “systemic immune suppression / locality of effect” value is “isolated to the area in which RP23 was delivered”. For the same compound, in the data set with C57BL/6 mice [2] (FIG. 11A), the “TCRαβ+ T-cells in the skin of psoriatic mice” value was “reduction in TCRαβ+ T-cells”. Further, the “number of FoxP3-expressing CD3+CD4+ TCRαβ T-cells in skin draining lymph nodes” value with C57BL/6 mice [2] (inguinal lymph nodes, day 15, with or without T-bet or Rorγt) is recorded as “significant increase”. In the data set with C57BL/6 mice [2] (injection day -1, day 15, proportion of CD45+ leukocytes), the “proportion of total CD4+ and CD8+ T-cells in the back skin” value was “reduced the proportion of total CD4+ and CD8+ T-cells”. Also, in the data set on CD11c+ dendritic cells (setting [3]), the “MHCII expression on DC in the bronchoalveolar space” value is on record as “also on DC in the bronchoalveolar space” and the “MHCII expression on lung DC” value is reported as “reduced MHCII expression on lung DC”. Besides, in the data set on CD11c+ dendritic cells (naive mice, 24 hours after intra-nasal instillation), the “MHCII expression on DC in the lung tissue” value is given as “substantially reduced”.
